Test results from ChEMBL document CHEMBL4819111, “Steroidal alkaloids isolated from Veratrum grandiflorum Loes. as novel Smoothened inhibitors with anti-proliferation effects on DAOY medulloblastoma cells” (Bioorg Med Chem, 2021).
pIC50: −log10 of the molar value.

What was measured:
[1] = target: Protein smoothened (Homo sapiens) (UniProt Q99835); experiment: Binding affinity to recombinant human Flag-6 x His-tagged Smo expressed in human HEK293T cells assessed as reduction in BODIPY-Cyclopamine binding by measuring fluorescence intensity at 3 uM incubated for 2 to 4 hrs by fluorescence microscopic competitive binding analysis relative to control; format: cell-based; parameters: scale not given: the % may be the effect or the level left; details: time 2-4 hrs
Chain of Protein smoothened (Homo sapiens) (Q99835 whole entry): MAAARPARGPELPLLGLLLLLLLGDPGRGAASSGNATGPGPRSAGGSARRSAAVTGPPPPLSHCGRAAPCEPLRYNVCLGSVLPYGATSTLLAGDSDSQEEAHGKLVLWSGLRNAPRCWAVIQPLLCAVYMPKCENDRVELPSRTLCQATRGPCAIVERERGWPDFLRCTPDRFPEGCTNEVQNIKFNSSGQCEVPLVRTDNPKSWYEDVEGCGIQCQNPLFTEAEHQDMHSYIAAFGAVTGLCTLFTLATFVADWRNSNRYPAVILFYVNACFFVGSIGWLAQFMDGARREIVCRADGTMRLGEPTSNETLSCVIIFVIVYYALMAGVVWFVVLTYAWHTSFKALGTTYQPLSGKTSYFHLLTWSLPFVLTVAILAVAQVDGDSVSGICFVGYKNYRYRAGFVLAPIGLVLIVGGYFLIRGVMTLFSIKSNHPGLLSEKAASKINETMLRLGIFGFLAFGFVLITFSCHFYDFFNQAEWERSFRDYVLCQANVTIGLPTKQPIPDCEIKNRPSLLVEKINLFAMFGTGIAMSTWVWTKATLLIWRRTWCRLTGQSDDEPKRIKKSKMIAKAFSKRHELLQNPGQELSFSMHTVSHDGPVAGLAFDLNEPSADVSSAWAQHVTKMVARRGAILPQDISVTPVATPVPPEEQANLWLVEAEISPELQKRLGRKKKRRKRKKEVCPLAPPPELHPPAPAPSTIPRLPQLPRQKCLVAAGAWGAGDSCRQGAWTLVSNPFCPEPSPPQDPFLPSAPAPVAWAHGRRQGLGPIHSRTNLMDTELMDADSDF

[2] = Inhibition of hedgehog pathway in mouse Shh Light II cells transfected with Renilla luciferase and firefly luciferase incubated for 48 hrs by dual luciferase reporter gene assay; format: cell-based
Daoy [3] = experiment: Antiproliferative activity against human DAOY cells assessed as cell viability at 10 to 30 uM incubated for 24 hrs by MTT assay relative to control; format: functional; details: dose 10-30 µM
[4] = target: Protein smoothened (Homo sapiens) (UniProt Q99835); experiment: Binding affinity to recombinant human Flag-6 x His-tagged Smo expressed in human HEK293T cells assessed as reduction in BODIPY-Cyclopamine binding by measuring fluorescence intensity at 30 uM incubated for 2 to 4 hrs by fluorescence microscopic competitive binding analysis relative to control; format: cell-based; parameters: scale not given: the % may be the effect or the level left; details: time 2-4 hrs
[5] = target: Protein smoothened (Homo sapiens) (UniProt Q99835); experiment: Binding affinity to recombinant human Flag-6 x His-tagged Smo expressed in human HEK293T cells assessed as reduction in BODIPY-Cyclopamine binding by measuring fluorescence intensity incubated for 2 to 4 hrs by fluorescence microscopic based competitive binding analysis; format: cell-based; details: dose 3-30 µM, time 2-4 hrs
Daoy [6] = experiment: Antiproliferative activity against human DAOY cells assessed as cell viability at 30 uM incubated for 24 hrs by MTT assay relative to control; format: functional; details: read-out: Activity
Daoy [7] = experiment: Antiproliferative activity against human DAOY cells assessed as reduction in cell viability incubated for 24 hrs by MTT assay; format: functional, cell-based
Daoy [8] = experiment: Antiproliferative activity against human DAOY cells assessed as cell viability at 0.2 uM incubated for 24 hrs by MTT assay relative to control; format: functional; details: read-out: Activity

| Compound | pIC50 [2] | Activity [4] [%] | Activity [5] | Activity [1] [%] | Activity (Daoy [3]) [%] | viability at 30 µM (Daoy [6]) [%] | pIC50 (Daoy [7]) | inhibition (Daoy [7]) | viability at 0.2 µM (Daoy [8]) [%] |
| --- | --- | --- | --- | --- | --- | --- | --- | --- | --- |
| CC1=C2C(=O)[C@H]3C(CC=C4C[C@@H](O)CC[C@@]43C)[C@@H]2CC[C@]12O[C@@H]1C[C@H](C)CN[C@H]1[C@H]2C (stereo not given in full) | 5.63 |  |  | 22.3 | 79.45 |  |  |  |  |
| C[C@H]1CCC([C@@H](C)[C@H]2CC[C@H]3[C@@H]4CC=C5C[C@@H](O)CC[C@]5(C)[C@H]4CC[C@]23C)=NC1 [VERAZINE] | 5.95 | 47.1 | Dose-Dependent Effect |  | 79.45 |  |  |  |  |
| CS(=O)(=O)c1ccc(C(=O)Nc2ccc(Cl)c(-c3ccccn3)c2)c(Cl)c1 [VISMODEGIB] | 7.15 |  |  |  |  |  |  |  | 91.5 |
| C[C@@H]1CCN=C([C@H](C)[C@H]2CC[C@H]3[C@@H]4CC=C5C[C@@H](O)CC[C@]5(C)[C@H]4CC[C@]23C)C1=O | 5.79 | 54.5 | Dose-Dependent Effect |  | 79.45 |  |  |  |  |
| C[C@@H]1CCN=C([C@@H](C)[C@H]2CC[C@H]3[C@@H]4CC=C5C[C@@H](O)CC[C@]5(C)[C@H]4CC[C@]23C)C1=O | 5.24 | 58.7 | Dose-Dependent Effect |  | 79.45 |  |  |  |  |

Continued, in another order:

| pIC50 [2] | Activity [4] [%] | Activity [5] | Compound | Activity [1] [%] | Activity (Daoy [3]) [%] | viability at 30 µM (Daoy [6]) [%] | pIC50 (Daoy [7]) | inhibition (Daoy [7]) | viability at 0.2 µM (Daoy [8]) [%] |
| --- | --- | --- | --- | --- | --- | --- | --- | --- | --- |
| 6.02 | 42.8 |  | C[C@H]1CC[C@@H]2N(C1)C[C@H]1[C@@H]3C[C@H]4[C@@H](CC=C5C[C@@H](O)CC[C@@]54C)[C@@H]3C[C@H](O)[C@@H]1[C@]2(C)O |  | 79.45 |  |  |  |  |
| 6.14 | 45.1 |  | C[C@H]1CC[C@@H]2[C@@H](C)[C@H]3[C@H](C[C@H]4[C@@H]5CC=C6C[C@@H](O[C@@H]7O[C@H](CO)[C@@H](O)[C@H](O)[C@H]7O[C@@H]7O[C@@H](C)[C@H](O)[C@@H](O)[C@H]7O)CC[C@]6(C)[C@H]5CC[C@]34C)N2C1 |  |  | 13 | 5.27 | Dose-Dependent Effect |  |
| 4.91 |  |  | C[C@H]1CC[C@@H]([C@@H](C)[C@]2(C)CCC3C2=CCC2C3CC=C3C[C@@H](O[C@@H]4O[C@H](CO)[C@@H](O)[C@H](O)[C@H]4O[C@@H]4O[C@@H](C)[C@H](O)[C@@H](O)[C@H]4O)CC[C@@]32C)NC1 (stereo not given in full) | 53.3 | 79.45 |  |  |  |  |
| 5.49 | 53.2 | Dose-Dependent Effect | C[C@H]1CCC([C@H](C)[C@H]2CC[C@H]3[C@@H]4CC=C5C[C@@H](O)CC[C@]5(C)[C@H]4CC[C@]23C)=NC1 |  | 79.45 |  |  |  |  |
| 4.84 | 69.4 |  | CC[C@H](C)C(=O)O[C@H]1[C@H](O)[C@H]2[C@@H](CN3C[C@@H](C)CC[C@H]3[C@@]2(C)O)[C@@H]2C[C@@]34O[C@]5(O)[C@@H]([C@@H](O)[C@@H](O)[C@H]3[C@@]21O)[C@]4(C)CC[C@@H]5O |  | 79.45 |  |  |  |  |
